The subject of assay [1] is EGFR Del19/T790M/C797S (BaF3-DTC cells). Description: EGFR degradation HTRF assay in BaF3-DTC cells. The assay is classed as cell-based. Particulars: 16 h treatment, Table 1; for DTC Dmax: maximum percentage of degradation. The procedure: (§1) BaF3-LTC(L858R/T790M/C797S) and BaF3-DTC(Del19/T790M/C797S) cells are treated with compounds diluted in 0.2% DMSO cell culture medium and incubate for 16 h, 37° C., 5% CO2, H1975- #28 cells are treated with compounds diluted in 0.2% DMSO cell culture medium on day 2, incubate for 16 h, 37° C., 5% CO2. the final concentration of compounds in all assay is start with 10 uM, 5-fold dilution, total 8 doses were included.
(§2) After 16 h treatment, add HTRF lysis buffer to each well; seal the plate and incubate 1 hour at room temperature on a plate shaker; Once the cells are lysed, 16 μL of cell lysate are transferred to a PE 384-well HTRF detection plate; 4 μL of pre-mixed HTRF antibodies are added to each well; Cover the plate with a plate sealer, spin 1000 rpm for 1 min, Incubate overnight at room temperature; Read on BMG PheraStar with HTRF protocol (337 nm-665 nm-620 nm).
(§3) The IC50 (DC50) value of a compound can be obtained by fitting the following equation
(§4) Y=Bottom+(TOP−Bottom)/(1+((IC50/X)^hillslope))
(§5) Wherein, X and Y are known values, and IC50, Hillslope, Top and Bottom are the parameters obtained by fitting with software. Y is the inhibition percentage (calculated from the equation), X is the concentration of the compound; IC50 is the concentration of the compound when the 50% inhibition is reached. The smaller the IC50 value is, the stronger the inhibitory ability of the compound is. Vice versa, the higher the IC50 value is, the weaker the ability the inhibitory ability of the compound is; Hillslope represents the slope of the fitted curve, generally around 1*; Bottom represents the minimum value of the curve obtained by data fitting, which is generally 0%±20%; Top represents the maximum value of the curve obtained by data fitting, which is generally 100%±20%. The experimental data were fitted by calculating and analyzing with Dotmatics data analysis software.
Background: TR-FRET usually uses a lanthanide donor and a delayed reading to cut background.

The target of assay [2] is EGFR L858R/T790M/C797S (BaF3-LTC cells) (Homo sapiens (Human), UniProt P00533, C797S/L858R/T790M). The assay is described as follows: EGFR degradation HTRF assay in BaF3-LTC cells. Type of assay: cell-based. Particulars: 16 h treatment; for DC50: Table 1, read-out: LTC DC50; for Dmax: maximum percentage of degradation, Table 1, read-out: LTC Dmax. The procedure:
as §1, §2, §3, §4, §5

The target of assay [3] is BTK (TMD-8 cells) (Homo sapiens (Human), UniProt Q06187). The assay is described as follows: BTK degradation HTRF assay in TMD-8 cells (Test Example 3). Type of assay: cell-based. Particulars: 6 h treatment, Table 5. The procedure:
TMD-8 cells were treated with compounds diluted in 0.2% DMSO, dilution was done according to the following protocol: (1) making 500× stock solution in DMSO from 1 mM by 6-fold dilution, total 8 doses were included; (2) making 2× solution in cell culture medium by transferring 0.5 μl 500× stock solution into […]; (3) adding 15 μl of 2× solution to cells for incubation of 6 h.
After 6 h treatment, 10 μl 4xlysis buffer was added to each well; the plate was sealed and incubated for 30 min at room temperature on a plate shaker; Once the cells was lysed, 16 μL of cell lysate were transferred to a PE 384-well HTRF detection plate; 4 μL of pre-mixed HTRF antibodies were added to each well; the plate was covered with a plate sealer, and then spinned at 1000 rpm for 1 min, then incubated overnight at room temperature; the results were read on BMG PheraStar with HTRF protocol (337 nm-665 nm-620 nm).
as §3, §4
as §5, with “wherein,” for “Wherein,”

In assay [4] the test system is HEK-293 cells. The assay is described as follows: HEK-293 cytotoxicity detection (CellTiter-Glo). The assay is classed as cell-based. To be noted: Homo sapiens, HEK293, 72 h incubation. The procedure: HEK-293 cells were treated with compounds diluted in 0.2% DMSO, dilution was done according to the following protocol: (1) making 500× stock solution in DMSO from 5 mM by 4-fold dilution, total 8 doses were included; (2) making 2× solution in cell culture medium by transferring 0.5ul 500× stock solution into 125ul medium; (3) adding 50ul of 2× solution to cells for incubation of 72 h.
25 μl of the CellTiter-Glo®Reagent [(Promega) - Cat No. G7572] was added to each well in the 96-well plate. The contents were mixed for 2 minutes on an orbital shaker to induce cell lysis. The plate was then allowed to incubate at room temperature for 10 minutes to stabilize luminescent signal. Luminescence was recorded on BMG PheraStar with luminescence protocol.
The IC50 value of a compound can be obtained by fitting the following equation
as §4, §5

Assay [5] deals with CRBN&DDB1 protein (Homo sapiens (Human), UniProt Q96SW2). Description: CRBN&DDB1 HTRF (TR-FRET) assay, blocking binding of biotin labeled thalidomide. To be noted: CRBN&DDB1 protein (His Tag), 30 nM biotin labeled thalidomide. The procedure: Biochemical potency of compound was determined by using CRBN& DDB1 protein (His Tag). Compounds were tested for blocking the binding of CRBN&DDB1 protein (CRBN, aa 40-442, DDB1, 1-1140, Viva Biotech) with biotin labeled thalidomide in an assay based on the time-resolved fluorescence-resonance energy transfer (TR-FRET) methodology. The assay was carried out in 384-well low volume black plates in a reaction mixture containing CRBN& DDB1 protein, 30 nM biotin labeled thalidomide and 0-10 μM compound in buffer containing 50 mM HEPES pH7.5, 50 mM NaCl, 0.01% BSA, 1 mM DTT and 0.015% Brij-35. The protein was preincubated with compound for 60 minutes at room temperature and biotin labeled thalidomide was added to plate. After further incubation at room temperature for 60 minutes detection reagents Mab Anti-6His Eu cryptate Gold (Cisbio, Cat #61HI2KLB) and Streptavidin-XL665 (Cisbio, Cat #610SAXLG) were added to plate. Plates were sealed and incubated at room temperature for 1 hour, and the TR-FRET signals (ex337 nm, em665 nm/620 nm) were recorded on a PHERAstar FSX plate reader (BMG Labtech). The inhibition percentage of CRBN& DDB1 protein interaction with biotin labeled thalidomide in presence of increasing concentrations of compounds was calculated based on the ratio of fluorescence at 665 nm to that at 620 nm. IC50 was derived from fitting the dose-response % inhibition data to the four-parameter logistic model by Dotmatics.
CRBN&DDB1 protein, sequence (Q96SW2 40-442): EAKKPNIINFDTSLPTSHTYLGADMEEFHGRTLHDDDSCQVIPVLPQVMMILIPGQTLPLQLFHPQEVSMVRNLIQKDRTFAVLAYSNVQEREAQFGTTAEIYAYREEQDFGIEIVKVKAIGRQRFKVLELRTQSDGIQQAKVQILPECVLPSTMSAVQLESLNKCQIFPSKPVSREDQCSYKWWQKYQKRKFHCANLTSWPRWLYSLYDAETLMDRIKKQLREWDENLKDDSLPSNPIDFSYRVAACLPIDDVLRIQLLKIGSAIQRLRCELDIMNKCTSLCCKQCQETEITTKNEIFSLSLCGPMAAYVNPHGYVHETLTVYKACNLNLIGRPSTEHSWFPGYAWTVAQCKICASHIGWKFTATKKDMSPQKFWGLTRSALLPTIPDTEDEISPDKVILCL
CRBN&DDB1 protein, sequence (Q16531 whole entry partner, the tested form may be a part): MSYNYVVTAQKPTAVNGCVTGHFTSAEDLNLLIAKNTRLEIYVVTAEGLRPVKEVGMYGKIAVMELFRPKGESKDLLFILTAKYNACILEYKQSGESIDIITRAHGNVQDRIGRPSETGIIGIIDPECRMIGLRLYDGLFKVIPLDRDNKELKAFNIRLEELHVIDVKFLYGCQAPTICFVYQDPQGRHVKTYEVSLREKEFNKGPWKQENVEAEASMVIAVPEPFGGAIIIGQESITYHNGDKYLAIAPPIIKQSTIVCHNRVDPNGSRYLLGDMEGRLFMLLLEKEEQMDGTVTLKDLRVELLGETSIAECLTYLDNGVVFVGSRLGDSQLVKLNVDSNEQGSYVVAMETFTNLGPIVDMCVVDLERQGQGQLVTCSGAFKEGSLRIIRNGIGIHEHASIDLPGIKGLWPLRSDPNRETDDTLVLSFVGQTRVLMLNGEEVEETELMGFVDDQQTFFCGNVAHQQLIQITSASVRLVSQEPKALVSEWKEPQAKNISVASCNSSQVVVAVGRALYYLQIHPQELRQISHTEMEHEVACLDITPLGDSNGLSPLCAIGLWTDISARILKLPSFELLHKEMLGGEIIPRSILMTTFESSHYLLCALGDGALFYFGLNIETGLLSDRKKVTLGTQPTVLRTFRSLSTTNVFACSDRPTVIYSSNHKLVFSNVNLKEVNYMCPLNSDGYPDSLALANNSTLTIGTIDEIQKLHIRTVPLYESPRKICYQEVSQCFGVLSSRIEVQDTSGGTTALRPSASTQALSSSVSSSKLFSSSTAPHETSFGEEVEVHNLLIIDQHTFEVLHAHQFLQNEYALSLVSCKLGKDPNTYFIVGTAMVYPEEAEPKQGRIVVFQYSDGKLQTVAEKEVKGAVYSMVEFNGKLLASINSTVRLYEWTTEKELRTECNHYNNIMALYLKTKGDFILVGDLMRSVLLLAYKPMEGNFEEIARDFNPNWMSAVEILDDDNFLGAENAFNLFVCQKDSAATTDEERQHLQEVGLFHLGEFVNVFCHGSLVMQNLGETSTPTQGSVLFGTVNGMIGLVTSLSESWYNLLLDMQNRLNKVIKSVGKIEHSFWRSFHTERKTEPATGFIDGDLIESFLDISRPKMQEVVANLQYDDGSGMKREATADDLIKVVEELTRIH
Four-parameter logistic equation: Y=Bottom+(Top−Bottom)/(1+10^((LogIC50−X) *HillSlope)). While X is Log of compound concentration. Y is % inhibition at X. Bottom is the bottom of the curve effect. Top is the top of the curve effect. HillSlope is the hill slope factor.

By DC50 is commonly meant the concentration giving 50% degradation. By IC50 is commonly meant the concentration that gives 50% inhibition. The Dmax is the greatest extent of degradation seen.

BTK (TMD-8 cells), sequence (Q06187 whole entry): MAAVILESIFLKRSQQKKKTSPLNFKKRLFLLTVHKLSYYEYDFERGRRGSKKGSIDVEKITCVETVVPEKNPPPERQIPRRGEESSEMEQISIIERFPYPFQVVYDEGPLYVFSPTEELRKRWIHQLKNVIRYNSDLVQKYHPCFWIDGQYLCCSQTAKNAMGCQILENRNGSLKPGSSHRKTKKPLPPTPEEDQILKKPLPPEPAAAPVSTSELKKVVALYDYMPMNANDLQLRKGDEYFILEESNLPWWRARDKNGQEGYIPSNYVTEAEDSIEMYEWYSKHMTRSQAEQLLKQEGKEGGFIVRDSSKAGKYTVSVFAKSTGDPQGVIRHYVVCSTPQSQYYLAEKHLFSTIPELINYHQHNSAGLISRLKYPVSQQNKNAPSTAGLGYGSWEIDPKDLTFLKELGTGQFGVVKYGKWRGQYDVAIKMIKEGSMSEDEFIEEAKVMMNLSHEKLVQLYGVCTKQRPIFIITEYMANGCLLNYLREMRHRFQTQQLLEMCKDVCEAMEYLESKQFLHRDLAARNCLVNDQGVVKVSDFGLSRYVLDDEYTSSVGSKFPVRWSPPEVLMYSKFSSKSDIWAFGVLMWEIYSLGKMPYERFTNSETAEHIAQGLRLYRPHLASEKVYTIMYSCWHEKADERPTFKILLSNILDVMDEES
EGFR L858R/T790M/C797S (BaF3-LTC cells), sequence (P00533 25-1210 T790M/C797S/L858R): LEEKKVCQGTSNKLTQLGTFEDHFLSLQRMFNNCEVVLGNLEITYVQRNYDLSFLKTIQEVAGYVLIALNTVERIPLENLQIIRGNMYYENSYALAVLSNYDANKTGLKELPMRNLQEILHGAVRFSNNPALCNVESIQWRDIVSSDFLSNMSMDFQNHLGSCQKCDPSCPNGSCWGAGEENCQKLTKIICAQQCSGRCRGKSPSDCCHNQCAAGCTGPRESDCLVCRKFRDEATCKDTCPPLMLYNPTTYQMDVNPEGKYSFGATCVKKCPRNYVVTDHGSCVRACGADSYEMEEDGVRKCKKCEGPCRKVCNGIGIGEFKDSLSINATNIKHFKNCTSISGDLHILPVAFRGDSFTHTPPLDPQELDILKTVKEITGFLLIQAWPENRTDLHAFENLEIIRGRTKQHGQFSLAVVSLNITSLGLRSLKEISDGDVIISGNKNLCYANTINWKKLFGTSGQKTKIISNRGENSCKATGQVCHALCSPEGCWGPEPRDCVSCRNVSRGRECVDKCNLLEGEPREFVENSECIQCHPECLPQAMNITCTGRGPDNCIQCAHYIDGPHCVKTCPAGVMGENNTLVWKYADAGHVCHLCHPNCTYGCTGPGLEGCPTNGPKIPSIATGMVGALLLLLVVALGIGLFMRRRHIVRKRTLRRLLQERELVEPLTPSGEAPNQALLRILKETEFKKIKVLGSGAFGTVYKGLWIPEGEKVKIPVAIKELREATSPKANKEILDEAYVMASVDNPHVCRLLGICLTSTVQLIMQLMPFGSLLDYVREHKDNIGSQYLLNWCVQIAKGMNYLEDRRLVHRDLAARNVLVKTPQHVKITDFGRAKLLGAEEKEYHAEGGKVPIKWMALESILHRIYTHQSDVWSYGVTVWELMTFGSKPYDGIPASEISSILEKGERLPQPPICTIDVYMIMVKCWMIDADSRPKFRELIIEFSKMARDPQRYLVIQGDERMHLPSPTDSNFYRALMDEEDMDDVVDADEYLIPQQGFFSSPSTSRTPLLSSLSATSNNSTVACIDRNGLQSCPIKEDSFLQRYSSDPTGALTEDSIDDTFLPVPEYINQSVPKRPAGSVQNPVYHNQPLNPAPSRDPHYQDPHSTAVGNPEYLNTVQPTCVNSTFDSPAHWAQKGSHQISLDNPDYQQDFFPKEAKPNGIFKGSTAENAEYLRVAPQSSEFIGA

Turning to `CCc1cc(Nc2ncc(Br)c(Nc3ccc4nccnc4c3P(C)(C)=O)n2)c(OC)cc1N1CCC(N2CCN(CCc3ccc(C4CCC(=O)NC4=O)cc3)CC2)CC1` (stereo not drawn) [Example 19, 3-(4-(2-(4-(1-(4-((5-bromo-4-((5-(dimethylphosphoryl)quinoxalin-6-yl)amino)pyrimidin-2-yl)amino)-2-ethyl-5-methoxyphenyl)piperidin-4-yl)piperazin-1-yl)ethyl)phenyl)piperidine-2,6-dione], in assay [1], it took 6.87 nM to reach half-maximal degradation (DC50) and the “DTC Dmax” value was 92.16%. In addition, the DC50 in assay [2] came out at 18.2 nM.

Consider `Cc1c(C(=O)Nc2cn(C)cn2)ccc(-c2nn3c(c2C(N)=O)Nc2ccc(N4CCN(CCc5cc(F)c([C@H]6CCC(=O)NC6=O)c(F)c5)CC4)cc2CC3)c1F` [Example B37, (R)-7-(4-(4-(2,6-dioxopiperidin-3-yl)-3,5-difluorophenethyl)piperazin-1-yl)-2-(2-fluoro-3-methyl-4-((1-methyl-1H-imidazol-4-yl)carbamoyl)phenyl)-9,10-dihydro-4H-benzo[d]pyrazolo[1,5-a][1,3]diazepine-3-carboxamide], for which it took 0.414 nM to reach half-maximal degradation in assay [3] (DC50). In assay [4], this compound showed an IC50 of over 10000 nM.

With `CCc1cc(Nc2ncc(Br)c(Nc3ccc4nccnc4c3P(C)(C)=O)n2)c(OC)cc1N1CCC(N2CCN(CCc3cc(F)c([C@H]4CCC(=O)NC4=O)c(F)c3)CC2)CC1` [Example 16, (R)-3-(4-(2-(4-(1-(4-((5-bromo-4-((5-(dimethylphosphoryl)quinoxalin-6-yl)amino)pyrimidin-2-yl)amino)-2-ethyl-5-methoxyphenyl)piperidin-4-yl)piperazin-1-yl)ethyl)-2,6-difluorophenyl)piperidine-2,6-dione], in assay [1], the DC50 is 0.61 nM and the “DTC Dmax” value amounted to 88.65%. Besides, in assay [2], the DC50 came out at 6.1 nM and the Dmax came out at 91.5%.

On to `CCc1cc(Nc2ncc(Br)c(Nc3ccc4nccnc4c3P(C)(C)=O)n2)c(OC)cc1N1CCC(N2CCN(CCc3cc(F)c([C@@H]4CCC(=O)NC4=O)c(F)c3)CC2)CC1` [Example 17, (S)-3-(4-(2-(4-(1-(4-((5-bromo-4-((5-(dimethylphosphoryl)quinoxalin-6-yl)amino)pyrimidin-2-yl)amino)-2-ethyl-5-methoxyphenyl)piperidin-4-yl)piperazin-1-yl)ethyl)-2,6-difluorophenyl)piperidine-2,6-dione], for which, in assay [1], the DC50 is 6.75 nM and the “DTC Dmax” value is on record as 64.81%. In assay [2], the DC50 came to 45.1 nM and the Dmax stood at 84.6%.

Turning to `CCc1cc(Nc2ncc(Br)c(Nc3ccc4nccnc4c3P(C)(C)=O)n2)c(OC)cc1N1CCC(N2CCN(CCc3cc(F)c(C4CCC(=O)NC4=O)c(F)c3)CC2)CC1` (stereo not drawn) [Example 18, 3-(4-(2-(4-(1-(4-((5-bromo-4-((5-(dimethylphosphoryl)quinoxalin-6-yl)amino)pyrimidin-2-yl)amino)-2-ethyl-5-methoxyphenyl)piperidin-4-yl)piperazin-1-yl)ethyl)-2,6-difluorophenyl)piperidine-2,6-dione], the figures for the DC50 in assay [1] and in assay [2] were 3.74 nM and 8.82 nM, respectively. Further, in assay [1], the “DTC Dmax” value is 95.55%.

In assay [5], `CCO/C=C/c1cc(F)c([C@@H]2CCC(=O)NC2=O)c(F)c1` [Example 2, (S,E)-3-(4-(2-ethoxyvinyl)-2,6-difluorophenyl)piperidine-2,6-dione] displayed an IC50 of 406 nM.

Consider `Cc1cc(-c2cc(Nc3cccc(N4CCN(CC5CCN(c6ccc(N7CCC(=O)NC7=O)cc6)CC5)CC4)c3)ncn2)c(F)cc1[C@@H](C)NC(=O)c1nc(C(C)(C)C)no1` [Example C39, (R)-3-(tert-butyl)-N-(1-(4-(6-((3-(4-((1-(4-(2,4-dioxotetrahydropyrimidin-1(21)-yl)phenyl)piperidin-4-yl)methyl)piperazin-1-yl)phenyl)amino)pyrimidin-4-yl)-5-fluoro-2-methylphenyl)ethyl)-1,2,4-oxadiazole-5-carboxamide], for which the DC50 in assay [3] was 242 nM. This compound also displayed an IC50 in assay [4] of over 10000 nM.

`O=C1CC[C@H](c2c(F)cc(N3CC[C@@H](C(=O)O)C3)cc2F)C(=O)N1` [Example 5, (R)-1-(4-((R)-2,6-dioxopiperidin-3-yl)-3,5-difluorophenyl)pyrrolidine-3-carboxylic acid]: the IC50 in assay [5] is 26 nM.

`CCO/C=C/c1cc(F)c([C@H]2CCC(=O)NC2=O)c(F)c1` [Example 13, (R,E)-3-(4-(2-ethoxyvinyl)-2,6-difluorophenyl)piperidine-2,6-dione]: the IC50 in assay [5] worked out at 27 nM.

Consider `O=C1CC[C@@H](c2c(F)cc(N3CC[C@@H](C(=O)O)C3)cc2F)C(=O)N1` [Example 6, (R)-1-(4-((S)-2,6-dioxopiperidin-3-yl)-3,5-difluorophenyl)pyrrolidine-3-carboxylic acid], for which, in assay [5], the IC50 is 1070 nM.

As to `Cc1cc(-c2cc(Nc3ccc(N4CCN(CCc5cc(F)c([C@H]6CCC(=O)NC6=O)c(F)c5)CC4)cn3)ncn2)ccc1[C@@H](C)NC(=O)c1nc(C(C)(C)C)no1` [Example C41, 3-(tert-butyl)-N—((R)-1-(4-(6-((5-(4-(4-((R)-2,6-dioxopiperidin-3-yl)-3,5-difluorophenethyl)piperazin-1-yl)pyridin-2-yl)amino)pyrimidin-4-yl)-2-methylphenyl)ethyl)-1,2,4-oxadiazole-5-carboxamide], the DC50 in assay [3] is 2.73 nM. The IC50 in assay [4] is over 10000 nM.
